In general, bioavailability refers to dose-corrected exposure relative to a reference, in per cent. One may read the Papp A→B as the apparent permeability from the apical to the basolateral side of a cell layer.

This note sets out measurements from ChEMBL document CHEMBL3217630, “Intramolecular hydrogen bonding to improve membrane permeability and absorption in beyond rule of five chemical space” (Medchemcomm, 2011).

Data set [1] in a line: (§1) Oral bioavailability in rat. Conditions: in vivo. The data set is classed as ADME, organism-based.
Data set [2] is described as follows: Oral bioavailability in human. The data set is classed as ADME, organism-based. Conditions: in vivo.
A short description of data set [3]: Fraction of the dose absorbed in rat. It is filed as ADME, organism-based. The note with it: in vivo, read-out: Fabs.
A short description of data set [4]: Apparent permeability across apical to basolateral side of MDCK cells. The note with it: dog. It is filed as ADME, cell-based, Canis lupus familiaris.
A further data set has as its system Rattus norvegicus. The data set is described as §1. The data set is classed as ADME, organism-based. Conditions: in vivo.

Each structure is given as a SMILES string.

On to `COC(=O)N[C@H](C(=O)N[C@@H](Cc1ccccc1)[C@@H](O)CN(Cc1ccc(-c2ccccn2)cc1)NC(=O)[C@@H](NC(=O)OC)C(C)(C)C)C(C)(C)C` [ATAZANAVIR], for which the bioavailability was found to be 10% in data set [1] and 60% in data set [2]. For the same compound, in data set [3], the Fa was determined as 54%. Further, the apical-to-basolateral permeability (Papp A→B) in data set [4] is 35 ×10⁻⁶ cm/s.

The compound `COCCCOc1cc(C[C@@H](C[C@H](N)[C@@H](O)C[C@H](C(=O)NCC(C)(C)C(N)=O)C(C)C)C(C)C)ccc1OC` gave a F in the data set on Rattus norvegicus of 0.1%. The compound further had a bioavailability in data set [2] of 3%. Also, the Fa in data set [3] was found to be 0.5%. Besides, the Papp A→B in data set [4] is 1 ×10⁻⁶ cm/s.
